Assay results as given in patent US20050060764A1, “Mouse model for bone metabolism” (priority 2003, published 2005).
Strand notation (5' to 3'): a small letter for the sugar, then the base; units joined by * are phosphorothioate-linked, units joined directly phosphodiester-linked; [ ] holds rarer units or linkages, { } end groups; capitals alone tell only the bases. e = 2'-O-(2-methoxyethyl) (MOE); [5mC] = 5-methylcytosine; d = 2'-deoxy (DNA)

Each substance was assayed on mouse RANKL mRNA (assay: Antisense inhibition of mouse RANKL mRNA levels in C2C12 cells, quantitative real-time PCR (Table 2)). Settings: averages from three experiments.
Format: cell-based
Design: concentration or dose not given beside the values
Method: Cells were seeded into 24-well plates (Falcon-353047 at a density of ˜10,000 cells/cm^2 for use in antisense oligonucleotide transfection.
Cells are treated and data are obtained in triplicate. […] Cells were harvested 16-24 hours after oligonucleotide treatment.
PCR reagents were obtained from Invitrogen Corporation, (Carlsbad, Calif.).
Probes and primers to mouse RANKL were designed to hybridize to a mouse RANKL sequence, using published sequence information (GenBank accession number AF013170.1, incorporated herein as SEQ ID NO:ll). For mouse RANKL the PCR primers were: • forward primer: […] (SEQ ID NO:12) • reverse primer: […] (SEQ ID NO: 13) and • the PCR probe was: FAM-[…]-TAMRA (SEQ ID NO: 14) where FAM is the fluorescent reporter dye and TAMRA is the quencher dye. For mouse GAPDH the PCR primers were: • forward primer: […](SEQ ID NO:15) • reverse primer: […](SEQ ID NO:16) and the • PCR probe was: 5′ JOE-[…]-TAMRA 3′ (SEQ ID NO: 17) where JOE is the fluorescent reporter dye and TAMRA is the quencher dye.
In accordance with the present invention, a second series of antisense compounds was designed to target different regions of the mouse RANKL RNA, using published sequences (GenBank accession number AF013170.1, incorporated herein as SEQ ID NO: 11). […] All cytidine residues are 5-methylcytidines. […] If present “N.D.” indicates “no data”.
In the case of “ggattttgatgctggtttta (antisense eG*eG*eA*eT*eT*dT*dT*dG*dA*dT*dG*d[5mC]*dT*dG*dG*eT*eT*eT*eT*eA) [ISIS 180809, 2′-MOE gapmer targeted to mouse and rat RANKL]”, the “% INHIB (inhibition of mouse RANKL mRNA levels)” value is reported as “at least 40%”.
In the case of “180802 (antisense eG*e[5mC]*eT*e[5mC]*eG*dA*dA*dA*dG*dT*dA*d[5mC]*dA*dG*dG*eA*eA*e[5mC]*eA*eG) [compound 180802]”, the “% INHIB (inhibition of mouse RANKL mRNA levels)” value is reported as 79%.
For “agcaaatgttggcgtacagg (antisense eA*eG*e[5mC]*eA*eA*dA*dT*dG*dT*dT*dG*dG*d[5mC]*dG*dT*eA*e[5mC]*eA*eG*eG) [ISIS 180807, 2′-MOE gapmer targeted to mouse and rat RANKL]”, the “% INHIB (inhibition of mouse RANKL mRNA levels)” value was “at least 40%”.
For “tcagtggcacatgtccaggg (antisense eT*e[5mC]*eA*eG*eT*dG*dG*d[5mC]*dA*d[5mC]*dA*dT*dG*dT*d[5mC]*e[5mC]*eA*eG*eG*eG) [ISIS 180818, 2′-MOE gapmer targeted to mouse RANKL]”, the “% INHIB (inhibition of mouse RANKL mRNA levels)” value was “at least 40%”.
With “180804 (antisense e[5mC]*eA*eG*eT*eT*d[5mC]*d[5mC]*dT*dT*d[5mC]*dT*dG*d[5mC]*dA*d[5mC]*eG*eG*e[5mC]*e[5mC]*e[5mC]) [compound 180804]” the “% INHIB (inhibition of mouse RANKL mRNA levels)” value was 44%.
In the case of “180791 (antisense e[5mC]*e[5mC]*eG*e[5mC]*e[5mC]*dG*dA*dG*d[5mC]*dA*dG*dA*d[5mC]*dT*d[5mC]*e[5mC]*eG*e[5mC]*e[5mC]*eA) [compound 180791]”, the “% INHIB (inhibition of mouse RANKL mRNA levels)” value is reported as 44%.
For “180833 (antisense e[5mC]*eA*eG*eA*eG*dA*d[5mC]*dA*dA*dT*dG*d[5mC]*dT*dT*dT*eT*eA*eT*eT*eG) [compound 180833]”, the “% INHIB (inhibition of mouse RANKL mRNA levels)” value was 22%.
With “180815 (antisense eT*e[5mC]*eA*eT*eA*d[5mC]*dA*d[5mC]*d[5mC]*dG*dT*dG*dG*dG*d[5mC]*e[5mC]*eA*eT*eG*eT) [compound 180815]” the “% INHIB (inhibition of mouse RANKL mRNA levels)” value was 30%.
With “agctacgagtaccttcaggg (antisense eA*eG*e[5mC]*eT*eA*d[5mC]*dG*dA*dG*dT*dA*d[5mC]*d[5mC]*dT*dT*e[5mC]*eA*eG*eG*eG) [ISIS 180827, 2′-MOE gapmer targeted to mouse RANKL]” the “% INHIB (inhibition of mouse RANKL mRNA levels)” value was “at least 40%”.
For “180792 (antisense eT*eG*e[5mC]*eT*e[5mC]*d[5mC]*dG*d[5mC]*dG*dA*dT*d[5mC]*dG*dT*dT*e[5mC]*eT*e[5mC]*eT*e[5mC]) [compound 180792]”, the “% INHIB (inhibition of mouse RANKL mRNA levels)” value was 77%.
For “180816 (antisense eA*e[5mC]*e[5mC]*eG*eT*dT*dG*dT*dG*dT*dA*dA*dT*d[5mC]*dA*e[5mC]*e[5mC]*eA*eT*eG) [compound 180816]”, the “% INHIB (inhibition of mouse RANKL mRNA levels)” value was 35%.
With “gctggcccggcgcatggcgc (antisense eG*e[5mC]*eT*eG*eG*d[5mC]*d[5mC]*d[5mC]*dG*dG*d[5mC]*dG*d[5mC]*dA*dT*eG*eG*e[5mC]*eG*e[5mC]) [ISIS 180795, 2′-MOE gapmer targeted to mouse RANKL]” the “% INHIB (inhibition of mouse RANKL mRNA levels)” value was “at least 40%”.
With “180797 (antisense eT*e[5mC]*eT*e[5mC]*eG*dG*d[5mC]*dT*dG*dG*d[5mC]*d[5mC]*d[5mC]*dG*dG*e[5mC]*eG*e[5mC]*eA*eT) [compound 180797]” the “% INHIB (inhibition of mouse RANKL mRNA levels)” value was 60%.
With “180799 (antisense e[5mC]*eG*eG*eG*eA*dG*dG*d[5mC]*dG*dG*d[5mC]*dG*dG*dG*dT*eG*eG*e[5mC]*eG*eG) [compound 180799]” the “% INHIB (inhibition of mouse RANKL mRNA levels)” value was 52%.
“180823 (antisense eT*eA*eA*eA*eT*dA*dT*dT*dT*dT*dG*dA*dA*dT*d[5mC]*eA*eA*eA*eT*eA) [compound 180823]” was tested, and the “% INHIB (inhibition of mouse RANKL mRNA levels)” value was 9%.
“180790 (antisense eA*eG*e[5mC]*eA*eG*dA*d[5mC]*dT*d[5mC]*d[5mC]*dG*d[5mC]*d[5mC]*dA*d[5mC]*eG*eG*e[5mC]*e[5mC]*e[5mC]) [compound 180790]” was tested, and the “% INHIB (inhibition of mouse RANKL mRNA levels)” value was 59%.
“tcggctggcccggcgcatgg (antisense eT*e[5mC]*eG*eG*e[5mC]*dT*dG*dG*d[5mC]*d[5mC]*d[5mC]*dG*dG*d[5mC]*dG*e[5mC]*eA*eT*eG*eG) [ISIS 180796, 2′-MOE gapmer targeted to mouse RANKL]” was tested, and the “% INHIB (inhibition of mouse RANKL mRNA levels)” value was “at least 40%”.
“180801 (antisense eA*eA*e[5mC]*eA*eT*dG*dG*dA*dG*d[5mC]*dG*dG*dG*dA*dG*eG*e[5mC]*eG*eG*e[5mC]) [compound 180801]” was tested, and the “% INHIB (inhibition of mouse RANKL mRNA levels)” value was 40%.
In the case of “cgggaggeggcgggtggcgg (antisense e[5mC]*eG*eG*eG*eA*dG*dG*d[5mC]*dG*dG*d[5mC]*dG*dG*dG*dT*eG*eG*e[5mC]*eG*eG) [ISIS 180799, 2′-MOE gapmer targeted to mouse RANKL]”, the “% INHIB (inhibition of mouse RANKL mRNA levels)” value is reported as “at least 40%”.
In the case of “tccggatccagcagggaagg (antisense eT*e[5mC]*e[5mC]*eG*eG*dA*dT*d[5mC]*d[5mC]*dA*dG*d[5mC]*dA*dG*dG*eG*eA*eA*eG*eG) [ISIS 180812, 2′-MOE gapmer targeted to mouse RANKL]”, the “% INHIB (inhibition of mouse RANKL mRNA levels)” value is reported as “at least 40%”.
With “180824 (antisense eT*eG*eT*e[5mC]*eA*dA*d[5mC]*dA*dG*dT*dG*dA*dG*dA*d[5mC]*eA*eT*eT*eT*eT) [compound 180824]” the “% INHIB (inhibition of mouse RANKL mRNA levels)” value was 29%.
In the case of “gttcacaaaggtcctggcag (antisense eG*eT*eT*e[5mC]*eA*d[5mC]*dA*dA*dA*dG*dG*dT*d[5mC]*d[5mC]*dT*eG*eG*e[5mC]*eA*eG) [ISIS 180788, 2′-MOE gapmer targeted to mouse RANKL]”, the “% INHIB (inhibition of mouse RANKL mRNA levels)” value is reported as “at least 40%”.
With “180808 (antisense eA*eG*e[5mC]*eT*eG*dA*dA*dG*dA*dT*dA*dG*dT*d[5mC]*dT*eG*eT*eA*eG*eG) [compound 180808]” the “% INHIB (inhibition of mouse RANKL mRNA levels)” value was 74%.
For “aacatggagcgggaggcggc (antisense eA*eA*e[5mC]*eA*eT*dG*dG*dA*dG*d[5mC]*dG*dG*dG*dA*dG*eG*e[5mC]*eG*eG*e[5mC]) [ISIS 180801, 2′-MOE gapmer targeted to mouse RANKL]”, the “% INHIB (inhibition of mouse RANKL mRNA levels)” value was “at least 40%”.
For “180788 (antisense eG*eT*eT*e[5mC]*eA*d[5mC]*dA*dA*dA*dG*dG*dT*d[5mC]*d[5mC]*dT*eG*eG*e[5mC]*eA*eG) [compound 180788]”, the “% INHIB (inhibition of mouse RANKL mRNA levels)” value was 62%.
In the case of “tctcggctggcccggcgcat (antisense eT*e[5mC]*eT*e[5mC]*eG*dG*d[5mC]*dT*dG*dG*d[5mC]*d[5mC]*d[5mC]*dG*dG*e[5mC]*eG*e[5mC]*eA*eT) [ISIS 180797, 2′-MOE gapmer targeted to mouse RANKL]”, the “% INHIB (inhibition of mouse RANKL mRNA levels)” value is reported as “at least 40%”.
With “180811 (antisense eA*eT*eG*e[5mC]*eT*dA*dA*dT*dT*dT*d[5mC]*dT*dT*d[5mC]*dA*e[5mC]*e[5mC]*eA*eG*e[5mC]) [compound 180811]” the “% INHIB (inhibition of mouse RANKL mRNA levels)” value was 67%.
In the case of “180817 (antisense eG*e[5mC]*eA*eT*e[5mC]*dG*dG*dA*dA*dT*dA*d[5mC]*d[5mC]*dT*d[5mC]*eT*e[5mC]*e[5mC]*e[5mC]*eA) [compound 180817]”, the “% INHIB (inhibition of mouse RANKL mRNA levels)” value is reported as 51%.
With “180805 (antisense eG*eG*e[5mC]*eT*eT*dG*d[5mC]*d[5mC]*dT*d[5mC]*dG*d[5mC]*dT*dG*dG*eG*e[5mC]*e[5mC]*eA*e[5mC]) [compound 180805]” the “% INHIB (inhibition of mouse RANKL mRNA levels)” value was 62%.
With “180793 (antisense eG*e[5mC]*e[5mC]*e[5mC]*eT*dG*d[5mC]*dT*d[5mC]*d[5mC]*dG*d[5mC]*dG*dA*dT*e[5mC]*eG*eT*eT*e[5mC]) [compound 180793]” the “% INHIB (inhibition of mouse RANKL mRNA levels)” value was 74%.
With “180829 (antisense eA*eA*eG*eG*e[5mC]*dA*d[5mC]*d[5mC]*dT*dG*dG*dT*dG*dA*d[5mC]*e[5mC]*eA*eA*e[5mC]*eA) [compound 180829]” the “% INHIB (inhibition of mouse RANKL mRNA levels)” value was 23%.
In the case of “tgctccgcgatcgttctctc (antisense eT*eG*e[5mC]*eT*e[5mC]*d[5mC]*dG*d[5mC]*dG*dA*dT*d[5mC]*dG*dT*dT*e[5mC]*eT*e[5mC]*eT*e[5mC]) [ISIS 180792, 2′-MOE gapmer targeted to mouse RANKL]”, the “% INHIB (inhibition of mouse RANKL mRNA levels)” value is reported as “at least 40%”.

What follows are substances tested on rat RANKL mRNA (assay: Antisense inhibition of rat RANKL mRNA levels in UMR-106 cells, quantitative real-time PCR (Table 3)). Settings: averages from three experiments.
Format: cell-based
Design: concentration or dose not given beside the values
How it was run: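 UMR-106 cells transfected with antisense oligonucleotides (5-methylcytidine throughout) in triplicate, harvested 16-24 h after treatment. RANKL mRNA quantified by real-time RT-PCR with a FAM/TAMRA probe, using rat GAPDH (JOE/TAMRA probe) as the reference.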
With “ggattttgatgctggtttta (antisense eG*eG*eA*eT*eT*dT*dT*dG*dA*dT*dG*d[5mC]*dT*dG*dG*eT*eT*eT*eT*eA) [ISIS 180809, 2′-MOE gapmer targeted to mouse and rat RANKL]” the “% INHIB (inhibition of rat RANKL mRNA levels)” value was “at least 40%”.
In the case of “180802 (antisense eG*e[5mC]*eT*e[5mC]*eG*dA*dA*dA*dG*dT*dA*d[5mC]*dA*dG*dG*eA*eA*e[5mC]*eA*eG) [compound 180802]”, the “% INHIB (inhibition of rat RANKL mRNA levels)” value is reported as 40%.
With “agcaaatgttggcgtacagg (antisense eA*eG*e[5mC]*eA*eA*dA*dT*dG*dT*dT*dG*dG*d[5mC]*dG*dT*eA*e[5mC]*eA*eG*eG) [ISIS 180807, 2′-MOE gapmer targeted to mouse and rat RANKL]” the “% INHIB (inhibition of rat RANKL mRNA levels)” value was “at least 40%”.
